Experiment [1] can be described thus: Effect on low-threshold (T-type) Calcium current in primary cultured rat cerebrocortical neurons. The class given is functional.
The subject of a further experiment is Mus musculus. Briefly: Compound was tested in vivo for anticonvulsant activity in DBA/2 mice by i.p. administration. It is filed as functional. The note with it: ip.
The target of the next experiment is D(2) dopamine receptor (Rattus norvegicus, UniProt P61169). Briefly: Inhibition of [3H]raclopride binding to Dopamine receptor D2 of rat striatum membranes. It is filed as cell membranes, Membrane.
Sequence of D(2) dopamine receptor (P61169 whole entry): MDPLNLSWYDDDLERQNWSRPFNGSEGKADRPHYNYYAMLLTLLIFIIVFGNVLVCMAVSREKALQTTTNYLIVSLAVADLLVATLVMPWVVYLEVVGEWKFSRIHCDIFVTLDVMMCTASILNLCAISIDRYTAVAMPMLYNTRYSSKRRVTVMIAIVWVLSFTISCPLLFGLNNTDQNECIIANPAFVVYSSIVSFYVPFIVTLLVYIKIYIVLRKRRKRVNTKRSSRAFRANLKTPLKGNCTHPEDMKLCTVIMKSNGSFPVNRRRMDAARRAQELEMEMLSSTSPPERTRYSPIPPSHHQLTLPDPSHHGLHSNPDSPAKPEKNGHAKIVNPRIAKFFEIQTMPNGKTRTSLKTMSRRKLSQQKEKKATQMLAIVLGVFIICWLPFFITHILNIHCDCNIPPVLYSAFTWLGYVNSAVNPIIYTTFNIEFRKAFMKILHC
Experiment [2] deals with Sodium channel alpha subunits; brain (Types I, II, III) (Rattus norvegicus, UniProt P04775+P04774+P08104). The experiment is described as follows: Inhibition of veratridine-induced depolarization in rat cerebrocortical synaptosomes using the voltage sensitive fluorescent dye Rhodamine 6G. The class given is functional, subcellular.

Consider seven molecules from ChEMBL document CHEMBL1131853 (Bioorg Med Chem Lett, 1999).

A word on the IC50: it is the concentration at which inhibition is half-maximal. One may read the ED50 as the dose at which the effect has come halfway, by size or by number of responders. `Fc1ccc(C(c2ccc(F)cc2)N2CCN(C/C=C/c3ccccc3)CC2)cc1` [FLUNARIZINE]: the concentration for half-maximal inhibition (IC50) in experiment [1] stood at 2200 nM. The ED50 with Mus musculus amounted to 6.4 mg/kg.
For the molecule `Cl.OC(COc1ccccc1)CN1CCC(c2ccc(Cc3ccc(F)cc3)cc2)CC1` (centres undefined), the IC50 on D(2) dopamine receptor was over 10000 nM; in experiment [1] it was 800 nM; in experiment [2], 360 nM. This molecule registered a median effective dose (ED50) in the experiment with Mus musculus of 7.5 mg/kg.
In the case of `Cl.OC(COc1ccccc1)CN1CCC(c2ccc(Oc3ccccc3)cc2)CC1` (centres undefined), the values for the IC50 (at D(2) dopamine receptor; in experiment [1]; in experiment [2]) were 4640 nM, 3500 nM and 220 nM, respectively. This molecule also came in with an ED50 in the experiment on Mus musculus of 5 mg/kg.
For the molecule `Cl.Fc1ccc(Cc2ccc(C3CCN(C/C=C/c4ccccc4)CC3)cc2)cc1`, the values for the half-maximal inhibitory concentration (IC50) in experiment [1] and in experiment [2] were 600 nM and 190 nM, respectively. The same molecule registered an ED50 in the experiment on Mus musculus of 2.2 mg/kg.
With `Cl.O[C@H](COc1ccccc1)CN1CCC(c2ccc(Oc3ccccc3)cc2)CC1`, the IC50 came out at 4340 nM on D(2) dopamine receptor, 2000 nM in experiment [1] and 130 nM in experiment [2]. Moreover, the 50% effect level with Mus musculus (ED50) was put at a dose of 2.5 mg/kg.
On to `Cl.O[C@@H](COc1ccccc1)CN1CCC(c2ccc(Oc3ccccc3)cc2)CC1`, for which the IC50 is 4080 nM at D(2) dopamine receptor, 2700 nM in experiment [1] and 120 nM in experiment [2]. This molecule had an ED50 in the experiment on Mus musculus of 2.5 mg/kg.
As for `C(=C\c1ccccc1)/CN1CCC(c2ccc(Oc3ccccc3)cc2)CC1.Cl`, the IC50 came to 800 nM in experiment [1] and 320 nM in experiment [2]. This molecule had an ED50 in the experiment with Mus musculus of 4.2 mg/kg.
